# Experimental data taken from patent US20220227997A1, “Elastomeric silicone compositions comprising glycerol, cyclodextrin and octenidine” (Coloplast A/S, priority 2019, published 2022).
# Structures can show the parent of a compound that is named as a salt.
# What was measured:
# [1] = Solubilization of octenidine in glycerol; format: physicochemical; conditions: without cyclodextrin
# Text: Octenidine is an amphiphilic substance therefore its solubility in glycerol is negligible, but may form micelles for higher solubility. In this study β-cyclodextrin (βCD) was used as a tool for allowing significant amounts of hydrophobic substances to be dissolved in hydrophilic media such as glycerol. Cyclodextrins as cyclic oligosaccharides that form host-guest complexes with hydrophobic molecules thereby enabling multiple potential uses. Here octenidine (0.35 g) and β-cyclodextrin (0.3182 g) were added to glycerol. The molar ratio between octenidine and β-cyclodextrin in the example was 2:1. The mixture was heated up to 80° C. and agitated using a magnetic stirrer until a clear solution was obtained (usually no longer than 30 minutes). Obtaining a clear mixture is indicative of successful preparation of a βCD-octenidine complex.
# [2] = tested on: Candida albicans; conditions: suspension test after 5 minutes of exposure; cited from earlier work
# [3] = tested on: Staphylococcus aureus; conditions: suspension test after 5 minutes of exposure; cited from earlier work
# [4] = tested on: Escherichia coli; conditions: suspension test after 5 minutes of exposure; cited from earlier work
# [5] = tested on: Pseudomonas aeruginosa; conditions: suspension test after 5 minutes of exposure; cited from earlier work
# [6] = tested on: Proteus mirabilis; conditions: suspension test after 5 minutes of exposure; cited from earlier work
# [7] = in water; estimated by Steward et al.; cited from earlier work
# [8] = tested on: gram positive and gram negative bacteria; conditions: generally; cited from earlier work
Structure (SMILES),solubility in glycerol [1],Effective Concentration [2],Effective Concentration [3],Effective Concentration [4],Effective Concentration [5],Effective Concentration [6],critical micellar concentration [7],Effective concentrations in suspension [8]
"CCCCCCCCN=c1ccn(CCCCCCCCCCn2ccc(=NCCCCCCCC)cc2)cc1 [Octenidine dihydrochloride, N-octyl-1-[10-(4-octyliminopyridin-1-yl)decyl]pyridin-4-imine dihydro-chloride]",negligible,0.01%,0.025%,0.025%,0.025%,0.025%,3.79 mM,above 0.005 wt %
[H]/N=C(\N/C(=N/[H])NCCCCCCNC(=N)NC(=N)Nc1ccc(Cl)cc1)Nc1ccc(Cl)cc1 [Chlorhexidine digluconate],–,0.025%,>0.2%,0.1%,>0.2%,>0.2%,–,–
